# Source: ChEMBL document CHEMBL1201862, “PubChem BioAssay data set” (2004)
# Calls of active or inactive are those of the source.
# Experiments:
# [1] = target: T1, Rac GTPase-activating protein 1 (Homo sapiens, UniProt Q9H0H5); assay: blockers of MgcRacGAP-driven Rac1 GTP hydrolysis – biochemical, ADP Hunter fluorescence, primary and confirmatory, confirmation (AID 624330); format: functional
# T1 sequence (Q9H0H5 whole entry): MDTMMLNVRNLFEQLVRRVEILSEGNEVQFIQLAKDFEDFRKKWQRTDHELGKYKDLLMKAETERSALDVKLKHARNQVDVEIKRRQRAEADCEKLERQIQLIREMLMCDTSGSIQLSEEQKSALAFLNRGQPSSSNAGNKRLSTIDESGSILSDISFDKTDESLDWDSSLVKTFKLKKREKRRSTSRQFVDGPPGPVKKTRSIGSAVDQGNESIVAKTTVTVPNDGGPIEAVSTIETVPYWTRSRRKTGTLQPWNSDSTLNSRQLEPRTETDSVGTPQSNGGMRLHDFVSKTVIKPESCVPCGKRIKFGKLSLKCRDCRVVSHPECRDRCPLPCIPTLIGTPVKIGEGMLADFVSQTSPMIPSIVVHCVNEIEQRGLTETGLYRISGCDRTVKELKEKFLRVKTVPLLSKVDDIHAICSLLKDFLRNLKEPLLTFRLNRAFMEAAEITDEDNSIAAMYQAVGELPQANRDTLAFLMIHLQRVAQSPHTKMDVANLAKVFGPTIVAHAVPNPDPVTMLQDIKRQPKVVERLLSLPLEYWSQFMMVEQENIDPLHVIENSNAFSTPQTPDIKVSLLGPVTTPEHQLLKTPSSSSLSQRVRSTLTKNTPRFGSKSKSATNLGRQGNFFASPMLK
# [2] = target: T2, Polyadenylate-binding protein 1 (Homo sapiens, UniProt P11940); assay: MLLE binding blockers, Cy5 peptide tracer – biochemical, fluorescence polarization, Cy5-PAM2 peptide, secondary, miRNA deadenylation inhibitor project, dose response (AID 602260); format: functional; settings: read-out: IC50_Mean
# T2 sequence (P11940 whole entry): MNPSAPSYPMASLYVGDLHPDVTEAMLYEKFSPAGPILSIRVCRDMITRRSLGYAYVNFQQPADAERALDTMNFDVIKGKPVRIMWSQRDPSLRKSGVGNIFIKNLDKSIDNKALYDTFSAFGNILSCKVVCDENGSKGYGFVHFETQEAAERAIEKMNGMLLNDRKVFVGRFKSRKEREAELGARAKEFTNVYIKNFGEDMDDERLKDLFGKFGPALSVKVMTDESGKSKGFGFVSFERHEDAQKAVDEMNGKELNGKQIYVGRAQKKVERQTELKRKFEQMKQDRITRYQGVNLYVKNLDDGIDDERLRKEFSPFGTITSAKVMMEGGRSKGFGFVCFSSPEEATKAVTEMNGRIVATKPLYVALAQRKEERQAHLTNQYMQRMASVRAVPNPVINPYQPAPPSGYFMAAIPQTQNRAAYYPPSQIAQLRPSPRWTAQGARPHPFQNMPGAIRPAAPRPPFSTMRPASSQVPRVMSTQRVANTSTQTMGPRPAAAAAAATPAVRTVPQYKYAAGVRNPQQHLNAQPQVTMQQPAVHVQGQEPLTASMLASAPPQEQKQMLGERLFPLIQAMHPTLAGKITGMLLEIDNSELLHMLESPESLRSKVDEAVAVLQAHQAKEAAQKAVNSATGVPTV
# Caspase-7 = Caspase-7 (Homo sapiens, UniProt P55210); assay: caspase-7 enzyme inhibition, selectivity check – biochemical, DEVD-R110 fluorescence, cherry-pick, selectivity assay for caspase-6 inhibitor project, dose response (AID 743295); format: functional
# Caspase-7, sequence (P55210 24-198 limits assumed): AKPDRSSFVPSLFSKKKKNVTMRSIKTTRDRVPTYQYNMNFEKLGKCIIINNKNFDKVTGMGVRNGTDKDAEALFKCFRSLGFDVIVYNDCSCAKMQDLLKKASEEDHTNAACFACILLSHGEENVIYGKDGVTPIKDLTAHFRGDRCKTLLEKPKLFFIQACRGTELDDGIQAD
# Caspase-7, sequence (P55210 207-303 limits assumed): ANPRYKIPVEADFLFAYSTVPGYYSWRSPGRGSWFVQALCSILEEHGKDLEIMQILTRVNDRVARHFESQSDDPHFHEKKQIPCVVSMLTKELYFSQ
# Caspase-6 = target: T3, Caspase-6 (Homo sapiens, UniProt P55212); assay: inhibition of CASP6 peptide cleavage – biochemical, VEID-R110 fluorescence, cherry-pick, dose response (AID 720632)
# T3 sequence (P55212 whole entry): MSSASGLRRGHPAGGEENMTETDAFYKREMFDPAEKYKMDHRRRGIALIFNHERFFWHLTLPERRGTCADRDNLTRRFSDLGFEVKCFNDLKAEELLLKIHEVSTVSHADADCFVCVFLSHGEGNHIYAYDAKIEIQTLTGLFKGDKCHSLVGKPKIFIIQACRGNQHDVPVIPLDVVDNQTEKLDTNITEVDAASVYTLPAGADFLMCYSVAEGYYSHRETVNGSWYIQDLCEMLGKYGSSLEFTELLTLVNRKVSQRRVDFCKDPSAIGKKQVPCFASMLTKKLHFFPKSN
# Caspase-9 = Caspase-9 (Homo sapiens, UniProt P55211); assay: inhibitors of purified CASP9 protease – biochemical, fluorescence, plate reader, cherry-picked samples, selectivity assay for caspase-6 inhibitor project, dose response (AID 743293)
# Caspase-9, sequence (P55211 1-315 limits assumed): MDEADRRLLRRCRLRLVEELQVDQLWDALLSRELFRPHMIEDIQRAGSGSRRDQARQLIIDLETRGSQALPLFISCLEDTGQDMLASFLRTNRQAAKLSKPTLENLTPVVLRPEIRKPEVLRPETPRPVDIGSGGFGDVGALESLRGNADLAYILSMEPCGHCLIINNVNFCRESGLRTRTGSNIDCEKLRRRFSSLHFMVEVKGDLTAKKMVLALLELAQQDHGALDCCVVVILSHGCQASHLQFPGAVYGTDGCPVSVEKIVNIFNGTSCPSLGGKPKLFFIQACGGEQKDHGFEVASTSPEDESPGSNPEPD
# Caspase-9, sequence (P55211 331-416 limits assumed): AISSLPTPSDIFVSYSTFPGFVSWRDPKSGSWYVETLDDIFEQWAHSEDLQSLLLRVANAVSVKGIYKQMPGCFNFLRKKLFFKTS
# [3] = target: T2, Polyadenylate-binding protein 1; assay: MLLE domain peptide-binding blockers, IC50 – biochemical, fluorescence polarization, FITC-PAM2 peptide, dose response (AID 602259); format: functional; settings: read-out: IC50_Mean
# [4] = viability loss in Vero cells – cytotoxicity control for Vif-APOBEC3G degradation inhibitor project, dose response (AID 1117358); format: functional; settings: Vero
# [5] = target: NAD-dependent protein deacylase sirtuin-5, mitochondrial (Homo sapiens, UniProt Q9NXA8); assay: sirtuin-5 deacylation blockers, concentration series – biochemical, fluorescence imaging, cherry-pick, set 5, dose response (AID 720591);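 further: desuccinylation of succinyl peptide AMC substrate read as fluorescence after trypsin release; potency of inhibitors that lower fluorescence and may act on trypsin instead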
# NAD-dependent protein deacylase sirtuin-5, mitochondrial, sequence (Q9NXA8 whole entry): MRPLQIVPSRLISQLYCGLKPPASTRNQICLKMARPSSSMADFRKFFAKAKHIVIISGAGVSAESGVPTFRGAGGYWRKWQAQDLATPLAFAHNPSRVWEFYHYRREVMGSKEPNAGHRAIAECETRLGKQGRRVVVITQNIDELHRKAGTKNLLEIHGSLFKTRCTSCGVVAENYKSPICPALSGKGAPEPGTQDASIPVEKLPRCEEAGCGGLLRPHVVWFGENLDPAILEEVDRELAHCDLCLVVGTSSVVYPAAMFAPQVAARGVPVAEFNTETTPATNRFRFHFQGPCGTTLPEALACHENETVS
# [6] = cytotoxicity toward Colo320 cells – cell-based, CellTiter-Glo luminescence, IC50, dose response (AID 1117334); format: functional; settings: COLO 320
# [7] = SNU-C1 cell viability reduction, dose response, CellTiter-Glo luminescence (AID 1117323); format: functional, cell-based
# [8] = cytotoxicity toward HT-29 cells – cell-based, CellTiter-Glo luminescence, IC50, dose response (AID 1117330); format: functional
# [9] = cytotoxicity toward HCT116 cells – cell-based, CellTiter-Glo luminescence, IC50, dose response (AID 1117332); format: functional; settings: HCT-116
# [10] = Reduced DLD-1 viability, concentration-response, CellTiter-Glo luminescence (AID 1117352); format: functional
# [11] = RKO cell viability reduction, dose response, CellTiter-Glo luminescence (AID 1117322); format: functional
# [12] = HCT116 cell viability decrease, GSK3B pretreatment – CellTiter-Glo, IC50, dose response (AID 1117339); format: functional; settings: HCT-116
# [13] = CellTiter-Glo luminescence survival assay, SW480 colon tumor line, concentration-response curve, half-maximal inhibitory concentration (AID 1117338); format: functional
# ELAV-like protein 1 = ELAV-like protein 1 (Homo sapiens, UniProt Q15717); assay: Identify HuR specific inhibitors.; format: functional
# ELAV-like protein 1, sequence (Q15717 whole entry): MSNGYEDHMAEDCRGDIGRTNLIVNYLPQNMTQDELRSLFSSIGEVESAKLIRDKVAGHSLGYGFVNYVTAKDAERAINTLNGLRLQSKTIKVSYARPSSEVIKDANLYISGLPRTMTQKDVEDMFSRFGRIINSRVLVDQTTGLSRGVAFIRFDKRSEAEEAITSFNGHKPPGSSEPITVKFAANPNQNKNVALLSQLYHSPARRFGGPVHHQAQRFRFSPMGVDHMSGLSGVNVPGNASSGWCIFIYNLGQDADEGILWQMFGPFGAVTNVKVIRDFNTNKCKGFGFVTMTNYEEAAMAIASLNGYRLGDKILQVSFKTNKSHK
# [14] = COV362 cell viability loss – plate reader, dry powder, SA12, cytotoxicity control for PAX8 inhibitor project, dose response (AID 743144); format: functional, cell-based
# [15] = IGROV1 cell killing – plate reader, dry powder samples, PAX8 inhibitor project, dose response (AID 743043); format: functional, cell-based; settings: IGROV-1
# [16] = PAX5 cellular inhibition readout – cell-based, plate reader, dry powder samples, selectivity assay for PAX8 inhibitor project, dose response (AID 743047); format: functional;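 further: HEK293 cells carrying a Pax5 driven CD19 promoter luciferase reporter; potency of inhibitors that lower reporter luminescence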
# [17] = OVCAR4 cell viability loss – plate reader, dry powder, SA11, cytotoxicity control for PAX8 inhibitor project, dose response (AID 743150); format: functional, cell-based; settings: OVCAR-4
# [18] = OV-90 cell viability loss – plate reader, dry powder, SA8, PAX8 inhibitor project, dose response (AID 743149); format: functional, cell-based
# [19] = COV434 cell viability loss – plate reader, dry powder, SA7, cytotoxicity control for PAX8 inhibitor project, dose response (AID 743145); format: functional, cell-based
# [20] = inhibitors acting on PAX2 in cells – cell-based, plate reader, dry powder samples, selectivity assay for PAX8 inhibitor project, dose response (AID 743048); format: functional;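 further: HEK293 cells carrying a WT1 promoter luciferase reporter driven by expressed Pax2; potency is for inhibition of Pax2 driven reporter signal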
# Paired box protein Pax-8 = Paired box protein Pax-8 (Homo sapiens, UniProt Q06710); assay: PAX8 transcriptional activity inhibition in RMG-I – RMG-I cells, luciferase, cherry-pick, dose response (AID 687027); format: functional, cell-based;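 further: luciferase reporter driven by Pax8 target thyroperoxidase promoter measured by SteadyGlo luminescence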
# Paired box protein Pax-8, sequence (Q06710 whole entry): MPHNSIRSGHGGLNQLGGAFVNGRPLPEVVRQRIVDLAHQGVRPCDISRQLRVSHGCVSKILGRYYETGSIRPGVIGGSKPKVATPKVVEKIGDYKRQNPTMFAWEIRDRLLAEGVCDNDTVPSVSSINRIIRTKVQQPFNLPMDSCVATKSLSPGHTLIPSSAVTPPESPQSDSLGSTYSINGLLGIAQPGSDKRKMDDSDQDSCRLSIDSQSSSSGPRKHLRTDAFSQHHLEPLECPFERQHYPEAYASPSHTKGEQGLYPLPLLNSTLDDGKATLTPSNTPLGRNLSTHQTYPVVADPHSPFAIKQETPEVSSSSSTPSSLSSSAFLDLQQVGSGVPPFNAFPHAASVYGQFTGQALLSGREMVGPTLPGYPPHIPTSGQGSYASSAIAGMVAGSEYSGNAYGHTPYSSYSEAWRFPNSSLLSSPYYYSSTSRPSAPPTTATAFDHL
# [21] = general cell-killing toxicity readout – plate reader, dry powder samples, cytotoxicity control for PAX8 inhibitor project, dose response (AID 743021); format: functional, cell-based
# [22] = PAX8-dependent cell viability loss – plate reader, dry powder, dose response (AID 743049); format: functional, cell-based
# [23] = toxicity toward immortalized ovarian surface epithelium – cell-based, plate reader, dry powder samples, cytotoxicity control for PAX8 inhibitor project, dose response (AID 743045); format: functional
# Transthyretin = Transthyretin (Homo sapiens, UniProt P02766); assay: Luminescence-based cell-based high throughput dose response assay to identify activators of Transthyretin (TTR) transcription.; format: functional
# H4 = assay: Luminescence Cell-Based Dose Response HTS to Identify Activators of 5'UTR Stem-Loop Driven Prion Protein mRNA Translation in H4 Neuroglioblastoma Cells. [Related pubchem assays: 1829 (Project Summary), 1814 (Primary HTS)]; format: functional; settings: Homo sapiens
# [24] = Luminescence Cell-Based Dose Response HTS to Identify Activators of Luciferase Translation or Activity in H4 […] Cells. [Related pubchem assays: 1829 (Project Summary), 1814 (Primary HTS)]; format: functional
# [25] = target: Heat shock protein HSP 90-alpha (Homo sapiens, UniProt P07900); assay: Luminescence-based dose response biochemical high throughput screening assay for inhibitors of the Heat Shock Protein 90 (HSP90). [Related pubchem assays: 1831 (Summary AID.), 1846 (Confirmation screen.), 1789 (Primary screen.)]
# [26] = target: RNA-editing ligase 1, mitochondrial (Trypanosoma brucei brucei, UniProt P86926); assay: inhibition of trypanosome RNA editing ligase – biochemical, fluorescence, Trypanosoma brucei, dose response (AID 1117295); format: functional
# RNA-editing ligase 1, mitochondrial, sequence (P86926 whole entry): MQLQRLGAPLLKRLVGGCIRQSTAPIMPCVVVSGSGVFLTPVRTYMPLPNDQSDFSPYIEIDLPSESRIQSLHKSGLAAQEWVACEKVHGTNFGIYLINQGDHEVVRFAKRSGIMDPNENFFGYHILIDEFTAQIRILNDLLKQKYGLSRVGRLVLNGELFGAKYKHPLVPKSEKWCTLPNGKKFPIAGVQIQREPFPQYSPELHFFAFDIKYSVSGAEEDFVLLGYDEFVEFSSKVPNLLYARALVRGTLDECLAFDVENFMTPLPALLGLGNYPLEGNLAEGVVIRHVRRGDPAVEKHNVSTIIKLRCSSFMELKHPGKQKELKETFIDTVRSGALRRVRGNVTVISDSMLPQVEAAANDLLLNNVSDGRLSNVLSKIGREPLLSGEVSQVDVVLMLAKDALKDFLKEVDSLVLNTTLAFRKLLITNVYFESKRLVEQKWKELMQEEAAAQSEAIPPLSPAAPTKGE
# Genome polyprotein = Genome polyprotein (dengue virus type 2, UniProt P29990); assay: flavivirus cap methylation enzyme inhibition – biochemical, confirmation dose response, primary screen (AID 588689); format: functional
# Genome polyprotein, sequence (P29990 2492-3391 limits assumed): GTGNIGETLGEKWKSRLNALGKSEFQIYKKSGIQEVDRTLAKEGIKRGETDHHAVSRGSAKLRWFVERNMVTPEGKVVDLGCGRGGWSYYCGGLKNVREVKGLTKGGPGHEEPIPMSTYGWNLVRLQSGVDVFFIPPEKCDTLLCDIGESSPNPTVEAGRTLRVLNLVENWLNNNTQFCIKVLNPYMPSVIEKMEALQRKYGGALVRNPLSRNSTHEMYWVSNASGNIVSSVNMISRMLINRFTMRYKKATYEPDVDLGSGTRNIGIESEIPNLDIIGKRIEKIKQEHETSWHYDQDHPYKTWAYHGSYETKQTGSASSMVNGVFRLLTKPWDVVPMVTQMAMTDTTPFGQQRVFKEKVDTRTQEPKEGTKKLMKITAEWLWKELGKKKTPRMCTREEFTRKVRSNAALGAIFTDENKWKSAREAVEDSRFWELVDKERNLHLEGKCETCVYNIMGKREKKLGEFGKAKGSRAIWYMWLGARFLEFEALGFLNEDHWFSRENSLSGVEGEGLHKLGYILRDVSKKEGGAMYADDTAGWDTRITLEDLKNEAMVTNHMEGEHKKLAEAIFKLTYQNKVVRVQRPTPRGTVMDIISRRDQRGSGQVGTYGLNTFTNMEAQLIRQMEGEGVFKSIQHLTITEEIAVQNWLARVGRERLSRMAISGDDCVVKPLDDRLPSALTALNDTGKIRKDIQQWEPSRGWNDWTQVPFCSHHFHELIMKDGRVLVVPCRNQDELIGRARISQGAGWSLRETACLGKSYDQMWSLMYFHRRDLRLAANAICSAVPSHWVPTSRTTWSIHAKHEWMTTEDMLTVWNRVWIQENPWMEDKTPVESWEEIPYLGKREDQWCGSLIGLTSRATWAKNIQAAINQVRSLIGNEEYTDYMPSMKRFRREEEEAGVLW
# [27] = Plasmodium falciparum Dd2 Sybr green parasite growth Measured in Cell-Based and Microorganism Combination System Using Plate Reader - 2153-01_Inhibitor_Dose_DryPowder_Activity_Set10.; format: functional
# [28] = growth inhibition of yeast DHODH-expressing 3D7 parasites – SYBR Green, dry powder samples, dose response (AID 1159570); format: functional, cell-based;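 further: parasite growth measured after 72 hours of compound exposure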
# [29] = P. falciparum Dd2 growth inhibitors, dose response, SYBR Green, cherry-picked samples (AID 1159567); format: functional, cell-based
# [30] = Dd2 malaria parasite growth inhibition potency – SYBR Green, dry powder samples, dose response (AID 1159566); format: functional, cell-based;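 further: potency for growth inhibition with lower SYBR green DNA signal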
# [31] = toxicity to human HepG2 hepatoma cells – cell-based, plate reader, dry powder samples, cytotoxicity control, dose response (AID 1159569); format: functional;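 further: inhibitor potency with signal falling toward the positive control level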
# [32] = growth inhibition of PfATP4-mutant resistant parasites – NITD609-resistant line, SYBR Green, dry powder, dose response (AID 1159571); format: functional, cell-based;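 further: parasites synchronized at ring stage by sorbitol before testing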
# [33] = HIV-1 AD8 envelope cell-cell fusion blockers – cherry-pick, dose response (AID 652062); format: functional, cell-based;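 further: luciferase signal from cell-cell fusion driven by HIV-1 clade B AD8 Env; potency is for inhibitors of fusion seen as a drop in luminescence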
# [34] = blockers of HIV-1 envelope-mediated cell-cell fusion – cherry-pick, dose response (AID 652057); format: functional, cell-based
# [35] = off-target signal loss in HeLa-CEM21 co-culture – HeLa F-luc CTL cells, cherry-picked, counter-screen for HIV-1 Env fusion inhibitor project, dose response (AID 652040); format: functional, cell-based;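 further: potency for signal decrease marking cytotoxic or nonspecific inhibition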
# [36] = luciferase reporter signal suppression in cells – H4 neuroglioma cells, luminescence, dose response (AID 1990); format: functional, cell-based
# [37] = HIV-1 Vif–A3G interaction blockers – biochemical, TR-FRET, GST-Vif 1-94, biotin-A3G peptide, dose response retest, primary screen (AID 1117319); format: functional;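 further: TR-FRET signal of purified GST-Vif binding a biotinylated A3G peptide; inhibitors lower the FRET signal by blocking Vif and A3G binding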
# [38] = alpha-synuclein stem-loop luciferase translation blockers – H4 neuroglioma cells, luminescence, confirmation (AID 1988); format: functional, cell-based
# [39] = Luminescence Cell-Based Dose Response HTS to Identify Inhibitors of 5'UTR Stem-Loop Driven Prion Protein mRNA Translation in H4 Neuroglioblastoma Cells. [Related pubchem assays: 1827 (Project Summary), 1813 (Primary HTS)]; format: functional
# [40] = Dd2 parasite growth inhibition in erythrocytes – SYBR Green, dry powder samples, set 9, dose response (AID 1159568); format: functional, cell-based
smiles,measurement,setting,value
COc1cc(NC(C)CCCNC(C)C)c2ncccc2c1OC (stereo not drawn),IC50,[1],31.7 µM (active)
same,IC50,[2],> 66 µM (inactive)
same,AC50,Caspase-7,23.2 µM (active)
same,AC50,Caspase-6,1.52 µM (active)
same,AC50,Caspase-9,> 70 µM (inactive)
same,IC50,[3],49.3 µM (inactive)
CSc1cccc(-n2cc(-c3ccc4c(c3)OCO4)nc2O)c1,CC50,[4],> 40 µM (active)
Nc1nc(CSc2ccc(Cl)cc2)nc(N2CCCCC2)n1,AC50,[5],26.5 µM (active)
CO[C@H]1O[C@@H]2O[C@@]3(C)CC[C@H]4[C@H](C)CC[C@@H]([C@@H]1C)[C@@]24OO3,IC50,[6],> 20 µM (inactive)
same,IC50,[7],> 20 µM (inactive)
same,IC50,[8],> 20 µM (inactive)
same,IC50,[9],> 20 µM (inactive)
same,IC50,[10],> 20 µM (inactive)
same,IC50,[11],> 20 µM (inactive)
same,IC50,[12],> 20 µM (inactive)
same,IC50,[13],> 20 µM (inactive)
CSC1=NC(=O)/C(=N\Nc2ccc([As](=O)(O)O)cc2)C(N)=N1,IC50,ELAV-like protein 1,2.7 µM (inactive)
O=C(Nc1cccc(F)c1)N1CCCCN2[C@H](CO)[C@@H](c3ccc(C#Cc4ccccc4)cc3)[C@H]2C1,AC50,[14],17 µM (active)
same,AC50,[15],16 µM (active)
same,AC50,[16],21 µM (active)
same,AC50,[17],31.1 µM (active)
same,AC50,[18],12.6 µM (active)
same,AC50,[19],11.6 µM (active)
same,AC50,[20],20.8 µM (active)
same,AC50,Paired box protein Pax-8,15.4 µM (active)
same,AC50,[21],24.4 µM (active)
same,AC50,[22],15.5 µM (active)
same,AC50,[23],21.2 µM (active)
Cn1nccc1C(=O)N1CCc2ccccc21,EC50,Transthyretin,> 167 µM (inactive)
CCc1ccc(OCc2ccc(C(=O)OC)o2)cc1,EC50,H4,2.81 µM (active)
same,EC50,[24],16.4 µM (active)
same,IC50,[25],0.551 µM (active)
O=C(CCN1C(=O)S/C(=C/c2ccccc2)C1=O)Nc1ccc(O)c(C(=O)O)c1,IC50,[26],> 96.6 µM (inactive)
same,IC50,Genome polyprotein,91.6 µM (active)
COc1ccc(-c2ccccc2[C@H]2[C@@H](C#N)N(C(=O)C3CCCC3)[C@H]2CO)cc1,AC50,[27],1.11 µM (active)
same,AC50,[28],0.368 µM (active)
same,AC50,[29],0.479 µM (active)
same,AC50,[30],0.346 µM (active)
same,AC50,[31],63.3 µM (active)
same,AC50,[32],1.78 µM (active)
Cn1c(-c2ccc(Cl)cc2)ccc(C#N)c1=O,AC50,[33],68.9 µM (active)
same,AC50,[34],2.46 µM (active)
same,AC50,[35],2.62 µM (active)
same,EC50,[36],8.33 µM (active)
same,IC50,[37],> 100 µM (active)
same,EC50,[38],> 120 µM (not active)
same,EC50,[39],> 120 µM (not active)
C/C=C/c1ccc([C@H]2[C@@H](CO)N(CC3CCCCC3)[C@@H]2CNC(C)C)cc1,AC50,[40],0.316 µM (active)
same,AC50,[28],0.396 µM (active)
same,AC50,[29],0.494 µM (active)
same,AC50,[30],0.231 µM (active)
same,AC50,[31],49.3 µM (active)
same,AC50,[32],0.294 µM (active)
